Assay results published in ChEMBL document CHEMBL1201862, “PubChem BioAssay data set” (2004).
Calls of active or inactive are those of the source.

Tests used:
[1] = AlphaScreen signal interference compounds, dose response, artefact control for ARNT-TACC3 interaction inhibitor project, biochemical, luminescence, cherry-pick (AID 651705); assay type: functional;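 note: AlphaScreen bead proximity signal that flags compounds interfering with the detection technology; potency reflects signal decrease which marks the compound as an assay artifact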
[2] = T. cruzi growth inhibition in host cells, dose response, cell-based, plate reader, dry powder, set 2 (AID 652275); assay type: functional
[3] = target: T1, Probable nicotinate-nucleotide adenylyltransferase (Staphylococcus aureus (strain N315), UniProt P65502); assay type: functional, Staphylococcus aureus subsp. aureus N315;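 for IC50 Mean: confirmatory dose-response retesting of NadD inhibitor hits first found in an ultra-high-throughput screen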
[4] = target: T1, Probable nicotinate-nucleotide adenylyltransferase; assay type: functional, Staphylococcus aureus subsp. aureus N315; settings: read-out: IC50_Mean
[5] = LGR2 antagonists, dose response, cell-based, HEK293, CRE-luciferase reporter, cherry pick, set 2 (AID 743343); assay type: functional;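 note: transfected cells were stimulated with diluted bursicon conditioned medium after compound addition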
[6] = A549 cell cytotoxicity, dose response, cytotoxicity control, plate reader, cherry-pick, antagonist series (AID 743412); assay type: functional, cell-based
HEK293 = test: inhibitors of LMP1-driven NF-kB reporter, dose response, cell-based, HEK293, luciferase, cherry-pick (AID 588343); assay type: functional; settings: Homo sapiens
cells = assay type: functional, cell-based
[7] = target: Nuclear receptor subfamily 0 group B member 1 (Homo sapiens, UniProt P51843); assay type: functional, cell-based;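 note: HEK293T cells transfected with SF-1 and DAX-1 plus StAR promoter luciferase reporter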
[8] = MC4R antagonists, dose response, counter-screen for LGR2 antagonist project, cell-based, plate reader, cherry pick (AID 743444); assay type: functional;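 note: transfected HEK 293 cells stimulated with alpha-MSH peptide; potency of inhibitors of the alpha-MSH evoked signal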
[9] = HEK293 cell cytotoxicity, dose response, cytotoxicity control, plate reader, cherry-picked samples (AID 743446); assay type: functional, cell-based
HeLa = test: HeLa cell cytotoxicity, dose response, cytotoxicity control, ATP luminescence, cherry-pick samples (AID 687004); assay type: functional, cell-based; settings: Homo sapiens
[10] = Counterscreen for activators of the function of SWI/SNF related, matrix associated, actin dependent regulator of chromatin, subfamily a, member 2 (SMARCA2, BRM): Luminescence-based cell-based high throughput dose response assay to identify non-selective compounds using the VP16 reporter assay.; assay type: functional
[11] = target: SWI/SNF-related matrix-associated actin-dependent regulator of chromatin subfamily A member 2 (Homo sapiens, UniProt P51531); test: Luminescence-based cell-based high throughput dose response assay to identify activators of the function of SWI/SNF related, matrix associated, actin dependent regulator of chromatin, subfamily a, member 2 (SMARCA2, BRM).; assay type: functional
[12] = target: Endoplasmic reticulum aminopeptidase 1 (Homo sapiens, UniProt Q9NZ08); test: ERAP1 aminopeptidase inhibitors, dose response, biochemical, cherry-pick, set 2, plate reader (AID 743314)
[13] = ADAM10 protease inhibitors, dose response, selectivity assay for ADAM17 exosite inhibitor project, biochemical, FRET peptide substrate, recombinant human ADAM10 (AID 743259);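 note: ADAM10 enzyme cleaving a FRET peptide substrate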
[14] = target: Disintegrin and metalloproteinase domain-containing protein 17 (Homo sapiens, UniProt P78536); test: exosite inhibitors of ADAM17, dose response, biochemical (AID 743260)
[15] = target: T2, Methionyl-tRNA synthetase, putative (Trypanosoma brucei brucei, UniProt Q38C91); assay type: functional, Trypanosoma brucei brucei strain 927/4 GUTat10.1
T2 sequence (Q38C91 whole entry): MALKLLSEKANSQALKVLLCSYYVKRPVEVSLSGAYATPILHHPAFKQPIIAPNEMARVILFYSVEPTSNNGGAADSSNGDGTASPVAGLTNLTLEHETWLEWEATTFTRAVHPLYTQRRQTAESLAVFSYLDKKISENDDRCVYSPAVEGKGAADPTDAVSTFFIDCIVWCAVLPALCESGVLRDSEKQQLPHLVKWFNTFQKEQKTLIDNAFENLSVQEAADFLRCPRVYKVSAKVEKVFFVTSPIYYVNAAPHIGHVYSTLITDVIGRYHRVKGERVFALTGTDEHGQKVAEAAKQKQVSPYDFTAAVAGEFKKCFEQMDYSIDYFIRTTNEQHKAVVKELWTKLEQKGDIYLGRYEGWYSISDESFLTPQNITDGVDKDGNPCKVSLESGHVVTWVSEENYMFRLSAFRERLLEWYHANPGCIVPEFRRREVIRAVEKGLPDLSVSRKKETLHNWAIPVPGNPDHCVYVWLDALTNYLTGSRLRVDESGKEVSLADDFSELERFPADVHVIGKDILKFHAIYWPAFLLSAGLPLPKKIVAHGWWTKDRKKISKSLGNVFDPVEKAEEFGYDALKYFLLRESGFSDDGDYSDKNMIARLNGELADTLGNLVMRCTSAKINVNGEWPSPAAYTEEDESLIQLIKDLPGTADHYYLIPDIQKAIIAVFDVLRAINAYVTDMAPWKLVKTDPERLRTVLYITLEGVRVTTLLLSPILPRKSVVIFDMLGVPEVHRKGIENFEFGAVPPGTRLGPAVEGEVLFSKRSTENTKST

[16] = target: T2, Methionyl-tRNA synthetase, putative; assay type: functional, Trypanosoma brucei brucei strain 927/4 GUTat10.1; remark: listed apart in the source
[17] = Counterscreen for inhibitors of Trypanosoma brucei methionyl tRNA synthetase (MetRS): Luminescence-based cell-based high throughput dose response assay to identify compounds that are cytotoxic to Jurkat human T lymphocyte cells.; assay type: functional
Albumin = Albumin (Bos taurus, UniProt P02769); test: Counterscreen for inhibitors of T-cell receptor (TCR)-CD3 interaction: Fluorescence-based biochemical high throughput dose response assay to identify inhibitors of T-cell receptor (TCR)-CD3 interaction using a TAMRA-labeled BSA probe.; assay type: functional
[18] = target: T3, Carboxy-terminal domain RNA polymerase II polypeptide A small phosphatase 1 (Homo sapiens, UniProt Q9GZU7); test: inhibitors of CTDSP1, concentration-response testing, biochemical assay, absorbance-based, actives from ultra-high-throughput screening (AID 540297); assay type: functional
T3 sequence (Q9GZU7 whole entry): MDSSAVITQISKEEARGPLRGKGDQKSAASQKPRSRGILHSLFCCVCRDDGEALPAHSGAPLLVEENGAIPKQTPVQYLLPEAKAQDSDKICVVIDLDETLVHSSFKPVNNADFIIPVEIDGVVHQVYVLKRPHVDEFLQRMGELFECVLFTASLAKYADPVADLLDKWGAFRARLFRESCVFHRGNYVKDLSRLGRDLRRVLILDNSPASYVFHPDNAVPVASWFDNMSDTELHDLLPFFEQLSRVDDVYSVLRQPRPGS

[19] = target: Melanin-concentrating hormone receptor 1 (Homo sapiens, UniProt Q99705); test: Late-stage fluorescence-based counterscreen for antagonists of the G-protein coupled receptor 7 (GPR7): cell-based dose response assay to identify antagonists of the melanin-concentrating hormone receptor 1 (MCHR1) Set 6.; assay type: functional
[20] = miR-122 activators in hepatoma reporter cells, dose response, cell-based, Huh7 psiCHECK-miR122, Renilla luciferase, cherry-picked (AID 651956); assay type: functional;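 note: huh7 hepatoma cells stably carrying a psiCHECK-2 miR-122 sensor plasmid; renilla luciferase signal reporting endogenous miR-122 activity after 48 h compound exposure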
[21] = HepG2 cell cytotoxicity, dose response, cytotoxicity control, plate reader, cherry-pick, antagonist series (AID 743416); assay type: functional, cell-based
[22] = HEK293T cytotoxicity, dose response, cytotoxicity control for miR-122 modulator project, cell-based, activator set, cherry-pick (AID 720690); assay type: functional;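 note: HEK293T human cells scored for general mammalian cytotoxicity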
[23] = target: 26S proteasome non-ATPase regulatory subunit 14 (Homo sapiens, UniProt O00487); test: inhibition of proteasome subunit RPN11 – biochemical, fluorescence polarization, uHTS hits, confirmation (AID 602368); assay type: functional
[24] = target: 72 kDa type IV collagenase (Homo sapiens, UniProt P08253); test: Dose Response validation of uHTS RPN11 inhibitor hits using a MMP-2 Fluorescence assay.; assay type: functional
Prothrombin = Prothrombin (Bos taurus, UniProt P00735); test: thrombin inhibition, dose response, biochemical, fluorescence polarization, uHTS hits (AID 602369); assay type: functional
Large T antigen = Large T antigen (Simian virus 40, UniProt P03070); assay type: functional, Betapolyomavirus macacae;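 note: Confirmatory-stage PubChem screen for compounds that inhibit SV40 T antigen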
[25] = Luminescence Cell-Based Dose Retest to Confirm Inhibitors of Cancer Stem Cells. [Related pubchem assays (depositor defined):AID2717, AID2721]; assay type: functional; settings: Homo sapiens
[26] = target: T4, Rac GTPase-activating protein 1 (Homo sapiens, UniProt Q9H0H5); test: MgcRacGAP GTPase-activating activity inhibitors, confirmation, biochemical, ADP Hunter fluorescence, primary and confirmatory (AID 624330); assay type: functional
T4 sequence (Q9H0H5 whole entry): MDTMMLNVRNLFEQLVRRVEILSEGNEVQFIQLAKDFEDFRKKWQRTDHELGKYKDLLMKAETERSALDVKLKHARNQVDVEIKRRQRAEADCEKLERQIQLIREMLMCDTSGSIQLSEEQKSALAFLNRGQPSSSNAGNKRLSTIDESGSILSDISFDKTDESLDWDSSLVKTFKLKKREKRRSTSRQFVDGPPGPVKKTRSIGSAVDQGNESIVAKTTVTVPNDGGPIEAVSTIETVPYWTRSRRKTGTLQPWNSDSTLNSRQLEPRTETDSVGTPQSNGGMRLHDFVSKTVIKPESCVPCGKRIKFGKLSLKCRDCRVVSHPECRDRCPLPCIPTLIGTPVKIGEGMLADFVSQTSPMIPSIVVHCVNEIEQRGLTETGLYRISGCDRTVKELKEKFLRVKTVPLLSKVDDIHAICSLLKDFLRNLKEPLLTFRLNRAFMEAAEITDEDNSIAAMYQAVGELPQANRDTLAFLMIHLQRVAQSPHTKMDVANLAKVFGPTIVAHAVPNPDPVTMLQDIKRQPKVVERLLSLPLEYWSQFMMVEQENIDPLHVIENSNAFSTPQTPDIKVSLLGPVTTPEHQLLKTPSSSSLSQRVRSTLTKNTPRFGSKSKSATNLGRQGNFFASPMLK

T1 sequence (P65502 whole entry): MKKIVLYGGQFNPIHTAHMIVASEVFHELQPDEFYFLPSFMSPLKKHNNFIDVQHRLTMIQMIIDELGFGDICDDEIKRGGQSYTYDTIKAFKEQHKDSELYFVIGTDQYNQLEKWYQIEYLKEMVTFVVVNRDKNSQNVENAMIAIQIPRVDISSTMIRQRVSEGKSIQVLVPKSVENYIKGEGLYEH
Chain of 72 kDa type IV collagenase (P08253 whole entry): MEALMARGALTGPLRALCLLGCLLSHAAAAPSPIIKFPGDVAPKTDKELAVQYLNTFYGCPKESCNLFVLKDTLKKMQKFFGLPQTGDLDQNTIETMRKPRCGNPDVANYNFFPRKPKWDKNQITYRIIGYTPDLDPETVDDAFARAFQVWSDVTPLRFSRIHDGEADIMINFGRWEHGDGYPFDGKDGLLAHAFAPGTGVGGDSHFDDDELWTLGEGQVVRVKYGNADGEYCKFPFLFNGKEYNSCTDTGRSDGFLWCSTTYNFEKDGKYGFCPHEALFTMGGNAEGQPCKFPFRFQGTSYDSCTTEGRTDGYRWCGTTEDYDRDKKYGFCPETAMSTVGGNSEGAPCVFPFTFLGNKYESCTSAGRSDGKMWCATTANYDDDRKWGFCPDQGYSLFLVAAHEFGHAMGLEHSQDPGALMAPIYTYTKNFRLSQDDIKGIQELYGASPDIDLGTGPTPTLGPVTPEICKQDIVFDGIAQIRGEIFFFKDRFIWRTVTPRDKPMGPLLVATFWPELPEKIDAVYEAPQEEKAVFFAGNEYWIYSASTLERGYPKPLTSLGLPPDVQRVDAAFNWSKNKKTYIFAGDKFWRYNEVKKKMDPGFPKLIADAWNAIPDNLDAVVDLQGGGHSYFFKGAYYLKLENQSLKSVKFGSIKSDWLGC
Chain of 26S proteasome non-ATPase regulatory subunit 14 (O00487 whole entry): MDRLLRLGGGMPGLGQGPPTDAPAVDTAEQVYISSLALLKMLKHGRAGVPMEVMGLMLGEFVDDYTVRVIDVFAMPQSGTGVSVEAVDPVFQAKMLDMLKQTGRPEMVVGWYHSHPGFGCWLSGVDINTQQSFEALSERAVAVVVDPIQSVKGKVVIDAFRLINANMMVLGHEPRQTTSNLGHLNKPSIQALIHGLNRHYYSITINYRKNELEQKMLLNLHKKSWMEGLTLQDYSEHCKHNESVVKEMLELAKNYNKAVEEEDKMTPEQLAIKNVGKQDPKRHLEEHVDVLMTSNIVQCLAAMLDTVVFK
Chain of Albumin (P02769 whole entry, the tested form may be a part): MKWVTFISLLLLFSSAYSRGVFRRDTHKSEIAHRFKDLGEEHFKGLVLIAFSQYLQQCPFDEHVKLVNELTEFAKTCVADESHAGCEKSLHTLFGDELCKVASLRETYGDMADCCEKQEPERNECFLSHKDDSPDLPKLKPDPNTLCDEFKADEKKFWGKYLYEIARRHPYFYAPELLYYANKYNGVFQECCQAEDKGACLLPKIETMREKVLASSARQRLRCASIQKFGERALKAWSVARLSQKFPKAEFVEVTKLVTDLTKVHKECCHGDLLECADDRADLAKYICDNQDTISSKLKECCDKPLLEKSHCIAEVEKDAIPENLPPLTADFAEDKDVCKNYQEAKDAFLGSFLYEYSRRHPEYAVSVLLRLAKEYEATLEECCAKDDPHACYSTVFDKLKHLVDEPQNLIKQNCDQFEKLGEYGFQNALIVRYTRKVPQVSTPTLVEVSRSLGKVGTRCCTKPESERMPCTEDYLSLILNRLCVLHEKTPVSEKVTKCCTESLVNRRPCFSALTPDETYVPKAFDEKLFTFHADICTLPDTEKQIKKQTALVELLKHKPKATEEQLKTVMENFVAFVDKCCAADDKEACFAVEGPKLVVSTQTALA
Chain of Endoplasmic reticulum aminopeptidase 1 (Q9NZ08 whole entry): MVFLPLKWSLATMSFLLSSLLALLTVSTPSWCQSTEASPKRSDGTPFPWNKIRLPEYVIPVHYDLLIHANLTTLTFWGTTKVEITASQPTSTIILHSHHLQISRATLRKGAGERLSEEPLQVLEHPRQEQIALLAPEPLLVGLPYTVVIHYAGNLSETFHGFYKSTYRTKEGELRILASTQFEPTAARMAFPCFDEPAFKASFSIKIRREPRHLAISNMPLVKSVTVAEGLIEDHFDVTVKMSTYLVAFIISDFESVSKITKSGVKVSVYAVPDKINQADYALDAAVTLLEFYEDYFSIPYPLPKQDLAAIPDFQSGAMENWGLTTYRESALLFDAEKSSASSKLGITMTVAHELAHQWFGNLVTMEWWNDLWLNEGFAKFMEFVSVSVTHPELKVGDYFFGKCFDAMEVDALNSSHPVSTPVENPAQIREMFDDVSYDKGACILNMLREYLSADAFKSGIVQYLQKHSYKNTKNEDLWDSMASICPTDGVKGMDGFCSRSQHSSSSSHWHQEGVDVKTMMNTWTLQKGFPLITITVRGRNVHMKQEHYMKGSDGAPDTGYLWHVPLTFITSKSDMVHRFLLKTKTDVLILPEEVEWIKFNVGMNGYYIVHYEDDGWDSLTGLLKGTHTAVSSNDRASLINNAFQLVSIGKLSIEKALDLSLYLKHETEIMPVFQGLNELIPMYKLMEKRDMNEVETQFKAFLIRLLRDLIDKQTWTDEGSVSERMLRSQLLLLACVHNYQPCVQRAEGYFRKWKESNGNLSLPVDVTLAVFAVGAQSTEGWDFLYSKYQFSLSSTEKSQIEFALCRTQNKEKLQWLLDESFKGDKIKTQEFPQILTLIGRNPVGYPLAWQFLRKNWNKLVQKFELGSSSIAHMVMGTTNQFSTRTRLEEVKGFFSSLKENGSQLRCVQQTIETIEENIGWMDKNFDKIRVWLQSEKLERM
Chain of SWI/SNF-related matrix-associated actin-dependent regulator of chromatin subfamily A member 2 (P51531 whole entry): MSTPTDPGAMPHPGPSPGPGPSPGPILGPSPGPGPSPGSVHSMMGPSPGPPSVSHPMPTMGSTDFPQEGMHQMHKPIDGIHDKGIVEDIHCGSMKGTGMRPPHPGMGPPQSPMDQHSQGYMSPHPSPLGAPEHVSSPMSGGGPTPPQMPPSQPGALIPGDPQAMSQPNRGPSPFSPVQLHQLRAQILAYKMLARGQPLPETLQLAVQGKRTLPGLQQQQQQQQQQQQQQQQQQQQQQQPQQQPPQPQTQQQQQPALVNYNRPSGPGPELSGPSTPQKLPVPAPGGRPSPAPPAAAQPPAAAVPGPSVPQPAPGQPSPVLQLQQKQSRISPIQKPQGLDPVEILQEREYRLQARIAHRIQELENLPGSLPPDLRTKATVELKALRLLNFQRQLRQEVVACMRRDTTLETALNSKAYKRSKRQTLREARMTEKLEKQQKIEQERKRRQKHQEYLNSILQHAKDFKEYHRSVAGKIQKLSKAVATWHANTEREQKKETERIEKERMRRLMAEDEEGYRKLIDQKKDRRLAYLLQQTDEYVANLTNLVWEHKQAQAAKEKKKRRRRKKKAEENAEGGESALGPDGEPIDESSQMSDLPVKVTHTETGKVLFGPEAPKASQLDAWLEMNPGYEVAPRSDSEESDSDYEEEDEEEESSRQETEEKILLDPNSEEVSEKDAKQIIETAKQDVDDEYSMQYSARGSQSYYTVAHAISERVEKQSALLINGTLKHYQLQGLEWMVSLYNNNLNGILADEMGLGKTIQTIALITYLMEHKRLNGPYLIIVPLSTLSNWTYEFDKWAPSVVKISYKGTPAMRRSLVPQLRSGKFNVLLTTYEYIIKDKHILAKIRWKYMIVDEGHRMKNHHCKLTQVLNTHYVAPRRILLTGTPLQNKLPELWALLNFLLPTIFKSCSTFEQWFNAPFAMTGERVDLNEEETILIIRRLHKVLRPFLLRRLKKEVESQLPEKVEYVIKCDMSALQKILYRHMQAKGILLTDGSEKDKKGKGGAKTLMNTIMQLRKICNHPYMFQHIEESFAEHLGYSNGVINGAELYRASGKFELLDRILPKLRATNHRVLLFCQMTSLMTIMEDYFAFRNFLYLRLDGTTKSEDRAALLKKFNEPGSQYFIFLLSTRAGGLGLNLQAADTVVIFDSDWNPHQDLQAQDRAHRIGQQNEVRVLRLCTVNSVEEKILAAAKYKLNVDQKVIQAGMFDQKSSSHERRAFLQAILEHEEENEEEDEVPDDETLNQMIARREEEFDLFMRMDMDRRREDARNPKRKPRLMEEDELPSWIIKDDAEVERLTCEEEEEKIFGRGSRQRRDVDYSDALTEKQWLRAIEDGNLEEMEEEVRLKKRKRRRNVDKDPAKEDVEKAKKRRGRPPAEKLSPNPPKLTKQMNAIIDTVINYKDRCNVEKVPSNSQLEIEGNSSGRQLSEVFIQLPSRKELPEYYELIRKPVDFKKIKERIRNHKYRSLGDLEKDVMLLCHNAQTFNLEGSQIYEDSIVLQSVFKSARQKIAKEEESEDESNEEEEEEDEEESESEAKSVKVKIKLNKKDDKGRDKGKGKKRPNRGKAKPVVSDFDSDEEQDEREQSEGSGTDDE
Chain of Nuclear receptor subfamily 0 group B member 1 (P51843 whole entry): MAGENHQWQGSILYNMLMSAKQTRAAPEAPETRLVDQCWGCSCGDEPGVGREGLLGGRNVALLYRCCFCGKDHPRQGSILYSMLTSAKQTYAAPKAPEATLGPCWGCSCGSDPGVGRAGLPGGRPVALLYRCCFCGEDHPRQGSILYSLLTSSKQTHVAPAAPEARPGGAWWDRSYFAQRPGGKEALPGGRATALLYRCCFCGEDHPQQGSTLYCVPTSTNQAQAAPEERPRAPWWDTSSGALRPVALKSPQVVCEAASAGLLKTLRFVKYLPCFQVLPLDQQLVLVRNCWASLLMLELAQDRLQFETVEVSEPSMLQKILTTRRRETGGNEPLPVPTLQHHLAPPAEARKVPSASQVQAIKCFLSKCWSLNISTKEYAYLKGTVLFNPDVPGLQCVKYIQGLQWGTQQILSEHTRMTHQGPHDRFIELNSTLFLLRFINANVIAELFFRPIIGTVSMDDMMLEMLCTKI

COc1ccc(C2c3ccc(O)cc3Oc3ncn4nc(-c5ccccn5)nc4c32)cc1OC (configuration not stated)
AC50 [1]: 122 µM (active)

CC(C)(C)[S@+]([O-])N1Cc2cc(C(=O)NCc3ccc4c(c3)OCO4)nc(-c3cccc(-c4cccnc4)c3)c2[C@@H]1CCO
AC50 [2]: 1.14 µM (active)

O=C(CSc1nnc(-c2cc3ccccc3cc2O)n1Cc1ccco1)N1CCc2ccccc2C1
IC50 [3]: 9.71 µM (active)
IC50 [4]: 30.6 µM (active)

COC(=O)c1ccc2nc(-c3ccc4c(c3)OCO4)cn2c1
AC50 [5]: 2.13 µM (active)
AC50 [6]: > 52 µM (inactive)
AC50 (HEK293): 1.57 µM (active)
IC50 (cells): > 67.5 µM (inactive)
IC50 [7]: > 0.0925 µM (active)
AC50 [8]: 2.22 µM (active)
AC50 [9]: > 52 µM (inactive)

C[C@H]1CN([C@@H](C)CO)C(=O)c2cc(NC(=O)Nc3ccc(F)cc3)ccc2O[C@@H]1CN(C)S(C)(=O)=O
AC50 (HeLa): 1.16 µM (active)

O=C(N/N=C/c1ccsc1)c1ccccn1
IC50 (cells): > 67.5 µM (inactive)
IC50 [7]: > 67.5 µM (inactive)

CSc1nc2c(=S)n(C)c(=O)n(C)c2[nH]1
EC50 [10]: > 91.2 µM (inactive)
EC50 [11]: > 91.2 µM (inactive)

O=C(NCC1CC1)[C@H]1[C@H](CO)[C@H]2Cn3c(ccc(/C=C/c4ccccc4)c3=O)[C@@H]1N2C(=O)C1CC1
AC50 [12]: 7.13 µM (active)

N#Cc1cccc(NC(=O)c2cc(C3CCCCN3S(=O)(=O)c3ccccc3)on2)c1 (configuration not stated)
IC50 [13]: > 69.5 µM (inactive)
IC50 [14]: > 69.5 µM (inactive)

COc1ccc(CNC(=O)CSc2n[nH]c3c4cc(C)ccc4nc-3n2)cc1
IC50 [15]: 0.72 µM (active)
IC50 [16]: 11 µM (inactive)
IC50 [17]: 83.3 µM (inactive)

O=C(NC(=S)Nc1ccc(Br)cn1)c1cccnc1
EC50 [10]: > 91.2 µM (inactive)
EC50 [11]: > 91.2 µM (inactive)

CN(CCC#N)C(=O)COC(=O)c1c2c(nc3ccccc13)/C(=C\c1ccco1)CC2
IC50 (Albumin): > 94.1 µM (inactive)
IC50 [18]: 3.2 µM (active)
IC50 [3]: 9.77 µM (active)
IC50 [4]: 18 µM (active)

Cc1c(CC(=O)N2CCN(C(=O)C3COc4ccccc4O3)CC2)c(=O)oc2cc(O)c(Cl)cc12 (configuration not stated)
AC50 [12]: 3.11 µM (active)

COC(=O)c1nn(-c2ccc(C(C)C)cc2)c(=O)c(Oc2ccc(OC)cc2)c1Cl
IC50 [19]: 3.57 µM (active)

C[C@H](CO)N1C[C@H](C)[C@H](CN(C)C(=O)Nc2cccc3ccccc23)Oc2ncc(C#Cc3ccc(C(F)(F)F)cc3)cc2C1=O
AC50 [20]: 13.9 µM (active)
AC50 [5]: 41.1 µM (active)
AC50 [6]: 21.3 µM (active)
AC50 [21]: 23.1 µM (active)
AC50 [8]: 21.7 µM (active)
AC50 [22]: 25.9 µM (active)
AC50 [9]: 41.4 µM (active)

CN1C(=O)c2cc(NC(=O)Nc3ccc(Cl)cc3)ccc2OC[C@H]2O[C@@H](CC(=O)NCCN3CCCCC3)CC[C@@H]21
AC50 (HeLa): 22.7 µM (active)

C=CCNC(=S)NNC(=O)c1ccc(=O)n(Cc2ccc(Cl)cc2Cl)c1
IC50 [15]: 13.4 µM (inactive)
IC50 [16]: 281 µM (inactive)
IC50 [17]: 83.3 µM (inactive)

CCOC(=O)CSc1nc2ccccc2n1C(=O)OCC
IC50 [23]: 21.1 µM (active)
IC50 [24]: > 100 µM (inactive)
IC50 (Prothrombin): 28.1 µM (active)

CC(C)C(=O)Nc1ccc(C(=O)NNC(=S)NC(=O)c2ccco2)cc1
IC50 (Albumin): > 94.1 µM (inactive)

C=CCn1c(CNc2ccccc2)nnc1SCC(=O)N/N=C/c1ccc(O)cc1O
AC50 [1]: 102 µM (active)
IC50 (Large T antigen): > 100 µM (active)
AC50 [25]: 5.46 µM (active)
IC50 [26]: 68.8 µM (active)

O=C(N/N=C/c1ccccc1)c1ccc(CN2C(=O)c3cccc4cccc2c34)cc1
IC50 [23]: 10.7 µM (active)
IC50 [24]: > 100 µM (inactive)
IC50 (Prothrombin): 69.8 µM (active)
